Laboratory results as given in US12036312B2, “Non-aqueous topical compositions comprising a halogenated salicylanilide” (priority 2016, dated 2024).

Tested on: S. aureus
Experiment: MIC assay according to CLSI criteria, Example 2, S. aureus strains
Assay type: cell-based, Staphylococcus aureus
Details: Staphylococcus aureus
Source text: Chosen for its relevance regarding bacterial skin infections, the methicillin-resistant S. aureus (MRSA) 01 strain was used as the primary test microorganism. This strain is a community-acquired MRSA clinical isolate of USA 300 type, from a skin abscess.
Two-hundred-four other MRSA and methicillin-sensitive S. aureus strains, and 4 Streptococcus pyogenes strains, were also included in the study. These covered fusidic acid- and mupirocin-resistant strains, these two types of resistance being of clinical relevance.
Strains were conserved in Luria Bertani (LB) Broth (S. aureus) or Brain Heart Infusion (BHI) (S. pyogenes) supplemented with glycerol 15% (v/v) at −80° C., and reactivated by isolation on LB (S. aureus) or BHI (S. pyogenes) agar plates. Strains were cultivated in Mueller Hinton (MH) Broth-cation adjusted (S. aureus) or BHI (S. pyogenes). All strains were cultivated aerobically (microaerobically for S. pyogenes strains) at 37° C.
Bacterial cultures were stopped in their exponential growth phase and plates were inoculated with the approximate concentration of 5×10^5 cells per well. Plates were incubated at 37° C. for 18 hours (S. aureus) or 24 hours (S. pyogenes). Optical density at a wavelength of 600 nm was measured at the end of the incubation time.

Measured: MIC

CN[C@H](CC(C)C)C(=O)N[C@H]1C(=O)N[C@@H](CC(N)=O)C(=O)N[C@H]2C(=O)N[C@H]3C(=O)N[C@H](C(=O)N[C@H](C(=O)O)c4cc(O)cc(O)c4-c4cc3ccc4O)[C@H](O)c3ccc(c(Cl)c3)Oc3cc2cc(c3O[C@@H]2O[C@H](CO)[C@@H](O)[C@H](O)[C@H]2O[C@H]2C[C@](C)(N)[C@H](O)[C@H](C)O2)Oc2ccc(cc2Cl)[C@H]1O [Vancomycin, vancomycin]
1 mg/L: MRSA, strain MRSA 103 | MRSA, strain MRSA 104 | MRSA, strain MRSA 105 | MRSA, strain MRSA 106 | MRSA, strain MRSA 108 | MRSA, strain MRSA 109 | MRSA, strain MRSA 110 | MRSA, strain MRSA 111 | MRSA, strain MRSA 112 | MRSA, strain MRSA 113 | MSSA, strain MSSA 01 | MSSA, strain MSSA 02 | strain 9-1862936 | strain 9-2625962 | strain 9-2642158 | strain 9-2955245 | strain 9-26422166 | strain 000040C | strain 000041C | strain 000274T | strain 114660U | strain 115242C | strain 115268C | strain 115273C | strain 115295C | strain 115303C | strain 115370U | strain 115427C | strain 115445C | strain 115561C | strain 115691T | strain 115740E | strain 115810E | strain 115903T | strain 116122T | strain E5-1029252 | strain E5-1029558 | strain E5-1030440 | strain E5-1030472 | strain E5-1030482 | strain E5-1033076 (first listing, r204) | strain E5-1033076 (second listing, r205) | strain E5-1033088 | strain E5-1033091 | strain E5-1035277 | strain E5-1035284 | strain E5-1035775 | strain E5-1035779 | strain E5-1037958 | strain E5-1037971 | strain E5-1038279 | strain E5-1038286 | strain E5-1038294 | strain E5-1039684 | strain E5-1039697 | strain E5-1041979 | strain E5-1041980 | strain E5-1041987 | strain E5-1043184 | strain E5-1043668 | strain E5-1045179 | strain E5-1046019 | strain E5-1046020 | strain E5-1046039 | strain E5-1046070 | strain E5-1046074 | strain E5-1046096 | strain E5-1046296 | strain E5-1046297 | strain E5-1046298 | strain E5-1047585 | strain E5-1047606 | strain E5-1047924 | strain E5-1048428 | strain E5-1048654 | strain EEFIC 01 | strain EEFIC 02 | strain K000772 | strain K000796 | strain K000863 | strain K000864 | strain K000866 | strain R000020 | strain R000024 | strain U115579
2 mg/L: MRSA, strain MRSA 102 | MRSA, strain MRSA 107 | NEWMAN, strain Newman | strain 115015T | strain 115263C | strain 115584D | strain 115628T | strain 115690C | strain E5-1030469 | strain E5-1041977 | strain E5-1046085 | strain E5-1046723 | strain E5-1048204 | strain E5-1048670 | strain K115498 | strain K115688 | strain K115689 | strain R000019
